77 compounds from ChEMBL document CHEMBL1123761, “Inhibition of the mammalian beta-lactamase renal dipeptidase (dehydropeptidase-I) by (Z)-2-(acylamino)-3-substituted-propenoic acids” (J Med Chem, 1987) can be followed below.

SMILES strings stand for the structures.

One may read the Ki as the equilibrium dissociation constant of an inhibitor or competing ligand from its target. A higher Ki goes with weaker binding.

The experiment has as its target T1, Dipeptidase 1 (Sus scrofa, UniProt P22412).
T1 sequence (P22412 whole entry): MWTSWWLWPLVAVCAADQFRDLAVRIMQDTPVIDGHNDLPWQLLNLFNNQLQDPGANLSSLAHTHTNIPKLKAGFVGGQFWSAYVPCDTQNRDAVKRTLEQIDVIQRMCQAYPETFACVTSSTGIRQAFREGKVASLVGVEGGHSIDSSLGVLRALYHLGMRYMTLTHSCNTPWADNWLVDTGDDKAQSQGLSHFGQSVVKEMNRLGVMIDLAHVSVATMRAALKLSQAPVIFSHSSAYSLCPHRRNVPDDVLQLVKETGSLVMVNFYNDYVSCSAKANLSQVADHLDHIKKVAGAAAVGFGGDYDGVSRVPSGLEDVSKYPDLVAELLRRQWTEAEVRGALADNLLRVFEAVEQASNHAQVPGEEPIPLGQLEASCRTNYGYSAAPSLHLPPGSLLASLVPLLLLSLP
Put plainly: Inhibitory activity against beta-lactamase renal dipeptidase.
`C/C=C(\NC(=O)C1CC1)C(=O)O` displayed a Ki of 3000 nM. This counts as single-digit micromolar.
`C/C=C(\NC(=O)[C@H]1[C@@H]2CCCC[C@@H]21)C(=O)O` had a Ki of 4200 nM.
To `CC1(C)CC1C(=O)N/C(=C\CCCCCNCCP(=O)(O)O)C(=O)O` (configuration not stated) belongs 580 nM; to `CC1(C)CC1C(=O)N/C(=C\CCCCCNCP(=O)(O)O)C(=O)O` (configuration not stated), 400 nM; to `CC1(C)CC1C(=O)N/C(=C\CCCCSCC(=O)O)C(=O)O` (configuration not stated), 130 nM.
For the compound `COCCCC/C=C(\NC(=O)C1CC1(C)C)C(=O)O` (configuration not stated), the inhibitory constant (Ki) amounted to 160 nM.
As to `C=CCCCCCCCCC(=O)N/C(=C\C)C(=O)O`, the Ki amounted to 34000 nM.
`CC1(C)CC1C(=O)N/C(=C\CCCCCC/C=C(\NC(=O)C1CC1(C)C)C(=O)O)C(=O)O` (configuration not stated) displayed a Ki of 92 nM.
On to `CC1(C)C[C@@H]1C(=O)N/C(=C\CCCCSC[C@H](N)C(=O)O)C(=O)O` (stereo in doubt; 175) [CILASTATIN], for which the Ki worked out at 190 nM.
To `CN(C)CCCCC/C=C(\NC(=O)C1CC1(C)C)C(=O)O` (configuration not stated) belongs 1280 nM; to `C/C=C(\NC(=O)CC(C)CCCC(C)C)C(=O)O` (configuration not stated), 4000 nM.
As for `CC(=O)NC(CSCCCC/C=C(\NC(=O)[C@H]1CC1(C)C)C(=O)O)C(=O)O` (some centres not stated), the Ki stood at 60 nM.
`CC1(C)CC1C(=O)N/C(=C\CCCCCCC[N+](C)(C)C)C(=O)[O-]` (configuration not stated) had a Ki of 570 nM.
To `CC1(C)CC1C(=O)N/C(=C\CC(F)(F)F)C(=O)O` (configuration not stated) belongs 240 nM; to `CSCCCCC/C=C(\NC(=O)C1CC1(C)C)C(=O)O` (configuration not stated), 150 nM.
To `C/C=C(\NC(=O)[C@H]1[C@H](C)[C@@H]1C)C(=O)O` belongs 4600 nM.
Compound `CC1(C)CC1C(=O)N/C(=C\CCCCC[n+]1ccccc1)C(=O)[O-]` (configuration not stated) registered a Ki of 1090 nM.
The compound `CCCCC/C=C(\NC(=O)[C@@H]1CC1(C)C)C(=O)O` showed a Ki of 8800 nM.
To `CCC/C=C(\NC(=O)C1CC1(Br)Br)C(=O)O` (configuration not stated) belongs 15 nM; to `CN(CCCCCC/C=C(\NC(=O)C1CC1(C)C)C(=O)O)CC(=O)O` (configuration not stated), 400 nM.
To `C/C=C(\NC(=O)CCCCCBr)C(=O)O` belongs 19000 nM; to `COC(=O)CSCCC/C=C(\NC(=O)C1CC1(C)C)C(=O)O` (configuration not stated), 280 nM; to `CC1(C)CC1C(=O)N/C(=C\CCCCCC#N)C(=O)O` (configuration not stated), 82 nM.
To `CC1(C)CC1C(=O)N/C(=C\CCCCCS)C(=O)O` (configuration not stated) belongs 170 nM; to `CCOC(=S)SCCCCC/C=C(\NC(=O)C1CC1(C)C)C(=O)O` (configuration not stated), 44 nM.
`C/C=C(\NC(=O)C1C(C)C1(C)C)C(=O)O` (configuration not stated) gave a Ki of 7200 nM.
To `CC1(C)CC1C(=O)N/C(=C\CCCCSc1ncccc1O)C(=O)O` (configuration not stated) belongs 20 nM.
To `CNC(CSCCCC/C=C(\NC(=O)[C@H]1CC1(C)C)C(=O)O)C(=O)O` (some centres not stated) belongs 150 nM; to `CC1(C)CC1C(=O)N/C(=C\CCCCC[N+](C)(C)CCO)C(=O)[O-]` (configuration not stated), 910 nM.
To `CC1(C)CC1C(=O)N/C(=C\CCCCCNC1=NCCN1)C(=O)O` (configuration not stated) belongs 840 nM.
For the compound `C/C=C(\NC(=O)[C@@H]1C[C@H]1c1ccccc1)C(=O)O`, the Ki was 5000 nM.
With `CN(CCCC/C=C(\NC(=O)C1CC1(C)C)C(=O)O)CC(=O)O` (configuration not stated), affinity was put at a Ki of 560 nM. Against the preceding compound, the Ki is about 8.9-fold lower.
To `CN(CCCCC/C=C(\NC(=O)C1CC1(C)C)C(=O)O)CC(=O)O` (configuration not stated) belongs 290 nM; to `C/C=C(\NC(=O)C1CCCCC1)C(=O)O`, 15000 nM.
Take `C/C=C(\NC(=O)CC(C)(C)C)C(=O)O`: the Ki is 20000 nM. This Ki and that of the compound before are within 1.5-fold of each other.
`CC1(C)CC1C(=O)N/C(=C\CCCCCSCC(N)=O)C(=O)O` (configuration not stated): the Ki worked out at 250 nM.
With `C#CCNCCCCC/C=C(\NC(=O)C1CC1(C)C)C(=O)O` (configuration not stated), the Ki worked out at 740 nM.
`C/C=C(\NC(=O)CCCCCCCC)C(=O)O`: the affinity, expressed as Ki, was 32000 nM.
To `C/C=C(\NC(=O)CCCCC(=O)OCC)C(=O)O` belongs 18000 nM; to `CC1(C)CC1C(=O)N/C(=C\CCCCCBr)C(=O)O` (configuration not stated), 270 nM.
In turn, `CC1(C)CC1C(=O)N/C(=C\CCCCCSCC(N)C(=O)O)C(=O)O` (configuration not stated) yielded a Ki of 230 nM.
Consider `CC1(C)C[C@@H]1C(=O)N/C(=C\CCCCC[N+](C)(C)C)C(=O)[O-]`, for which the Ki worked out at 650 nM.
For `CCCCC/C=C(/NC(=O)C1CC1(C)C)C(=O)O` (configuration not stated) the value was 11200 nM; for `CCCCCCC/C=C(\NC(=O)C1CC1(C)C)C(=O)O` (configuration not stated), 96 nM.
As for `CC1(C)CC1C(=O)N/C(=C\CCCCCCCBr)C(=O)O` (configuration not stated), the affinity, expressed as Ki, was 110 nM.
In the case of `C/C=C(\NC(=O)[C@@H]1C[C@@H]1C)C(=O)O`, the affinity corresponds to a Ki of 12000 nM. This Ki lies about 110-fold higher than the previous one.
As to `C/C=C(\NC(=O)C1CCCCCC1)C(=O)O`, the Ki was 12000 nM.
To `CC1(C)CC1C(=O)N/C(=C\CCCCSc1ccccc1C(=O)O)C(=O)O` (configuration not stated) belongs 60 nM.
For `CC1(C)CC1C(=O)N/C(=C\CCCCC(=O)O)C(=O)O` (configuration not stated), the affinity corresponds to a Ki of 58 nM.
In turn, `COCCCCC/C=C(\NC(=O)C1CC1(C)C)C(=O)O` (configuration not stated) registered a Ki of 180 nM.
On to `C/C=C(\NC(=O)c1ccccc1Cl)C(=O)O`, for which the Ki came to 25000 nM.
To `C/C=C(\NC(=O)[C@@H]1C[C@H]1C(C)(C)C)C(=O)O` belongs 6500 nM; to `CCCCCC/C=C(\NC(=O)C1CC1(C)C)C(=O)O` (configuration not stated), 160 nM.
In turn, `CCCCCCCC/C=C(\NC(=O)C1CC1(C)C)C(=O)O` (configuration not stated) showed a Ki of 110 nM.
To `CN(C)CCCC/C=C(\NC(=O)C1CC1(C)C)C(=O)O` (configuration not stated) belongs 3450 nM; to `C[N+](C)(C)CCCCC/C=C(\NC(=O)C1CC1(Cl)Cl)C(=O)O` (configuration not stated), 180 nM; to `CC1(C)CC1C(=O)N/C(=C\CCCCSc1ncccc1C(=O)O)C(=O)O` (configuration not stated), 40 nM.
Compound `CC1(C)CC1C(=O)N/C(=C\CCCSc1ncccc1O)C(=O)O` (configuration not stated) showed a Ki of 130 nM.
As to `CC1(C)CC1C(=O)N/C(=C\C1CC1)C(=O)O` (configuration not stated), affinity was put at a Ki of 440 nM.
For `CC1(C)CC1C(=O)N/C(=C\C1CCCCC1)C(=O)O` (configuration not stated) the value was 400 nM.
For `CCCCCCCCC/C=C(\NC(=O)C1CC1(C)C)C(=O)O` (configuration not stated) the value was 110 nM; for `CC1(C)CC1C(=O)N/C(=C\CCCCSCC(=O)C(=O)O)C(=O)O` (configuration not stated), 160 nM; for `CC1(C)CC1C(=O)N/C(=C\CCC(=O)O)C(=O)O` (configuration not stated), 140 nM.
To `C/C=C(\NC(=O)CC1CCCCC1)C(=O)O` belongs 25000 nM; to `C=C(NC(=O)C1CC1(C)C)C(=O)O` (configuration not stated), 52000 nM.
For `CC1(C)CC1C(=O)N/C(=C\CCCCCN)C(=O)O` (configuration not stated), the Ki was 1000 nM.
For `C/C=C(\NC(=O)[C@@H]1C[C@H]1CC)C(=O)O` the value was 1600 nM; for `C/C=C(\NC(=O)C1CCC1C)C(=O)O` (configuration not stated), 4700 nM; for `C/C=C(\NC(=O)CCCCCCCCC(=O)O)C(=O)O`, 28000 nM.
To `C=CCNCCCCC/C=C(\NC(=O)C1CC1(C)C)C(=O)O` (configuration not stated) belongs 870 nM; to `C/C=C(\NC(=O)[C@@H]1C[C@H]1C)C(=O)O`, 1700 nM.
The compound `CC1(C)CC1C(=O)N/C(=C\CCCSCP(=O)(O)O)C(=O)O` (configuration not stated) registered a Ki of 220 nM.
Compound `C/C=C(\NC(=O)c1ccccc1)C(=O)O` displayed a Ki of 70000 nM.
Regarding `CC(C)CC(=O)N/C(=C\CCC(=O)O)C(=O)O`, the Ki turned out to be 2700 nM.
To `CC1(C)CC1C(=O)N/C(=C\CCCCSc1ccccc1)C(=O)O` (configuration not stated) belongs 100 nM.
To `C/C=C(\NC(=O)C(C)C(C)C)C(=O)O` (configuration not stated) belongs 3300 nM; to `CC1(C)C[C@@H]1C(=O)N/C(=C\CCCCSC[C@H](N)C(=O)O)C(=O)O` (stereo in doubt; 174) [CILASTATIN], 210 nM.
